For assay [1], the target named is LATS1 (Homo sapiens (Human), UniProt O95835). As to the kind of experiment: LATS1 biochemical assay (Table 1A, Compound Examples 1-290; method in the earlier part).
In assay [2] the test system is YAP nuclear translocation in HaCaT cells. As to the kind of experiment: YAP Translocation Assay (HaCaT Cells). It counts as cell-based, human. The note with it: 24 hours. The essentials: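 HaCaT cells (20,000/well) in DMEM + 10% FBS were plated overnight at 37° C, then exposed to compound for 24 h at 37° C. Cells were fixed with PFA, permeabilized with 0.1% Triton/1.5% BSA and imaged by high-content imaging.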

In assay [3] the test system is Phospho-YAP (SER127) in HaCaT cells. As to the kind of experiment: pYAP HTRF Assay (HaCaT Cells). In kind it is cell-based, human. The note with it: 2 hours. The method, then:
The pYAP HTRF assay was performed using the Phospho-YAP (SER127) 10000 test kit (CisBio, catalogue number 64YAPPEH) according to manufacturer's instructions. Briefly, HaCaT cells were suspended at 1.1×10^6 cells/mL in DMEM (no phenol red)+10% FBS with penicillin-streptomycin-glutamine. 5 μL of cells were dispensed into 1536 well white solid bottom, tissue culture treated plates (5500 cells/well), and incubated for 48 hours at 37° C. 50 nL test compound was transferred into the assay plates containing HaCaT cells using Pintool (GNF) and incubated for 2 hours. […] The plates were incubated overnight (20 hrs) at room temperature covered with metal lids. Plates were read on Pherastar (BMG Labtech) for HTRF (665 nm/620 nm).
(In general: TR-FRET usually uses a lanthanide donor and a delayed reading to cut background.)

The structures appear in SMILES notation.

By IC50 is commonly meant the concentration at which inhibition is half-maximal. A higher IC50 goes with weaker potency. By EC50 is commonly meant the concentration needed to bring the measured effect to its halfway point.

LATS1, sequence (O95835 whole entry, looked up): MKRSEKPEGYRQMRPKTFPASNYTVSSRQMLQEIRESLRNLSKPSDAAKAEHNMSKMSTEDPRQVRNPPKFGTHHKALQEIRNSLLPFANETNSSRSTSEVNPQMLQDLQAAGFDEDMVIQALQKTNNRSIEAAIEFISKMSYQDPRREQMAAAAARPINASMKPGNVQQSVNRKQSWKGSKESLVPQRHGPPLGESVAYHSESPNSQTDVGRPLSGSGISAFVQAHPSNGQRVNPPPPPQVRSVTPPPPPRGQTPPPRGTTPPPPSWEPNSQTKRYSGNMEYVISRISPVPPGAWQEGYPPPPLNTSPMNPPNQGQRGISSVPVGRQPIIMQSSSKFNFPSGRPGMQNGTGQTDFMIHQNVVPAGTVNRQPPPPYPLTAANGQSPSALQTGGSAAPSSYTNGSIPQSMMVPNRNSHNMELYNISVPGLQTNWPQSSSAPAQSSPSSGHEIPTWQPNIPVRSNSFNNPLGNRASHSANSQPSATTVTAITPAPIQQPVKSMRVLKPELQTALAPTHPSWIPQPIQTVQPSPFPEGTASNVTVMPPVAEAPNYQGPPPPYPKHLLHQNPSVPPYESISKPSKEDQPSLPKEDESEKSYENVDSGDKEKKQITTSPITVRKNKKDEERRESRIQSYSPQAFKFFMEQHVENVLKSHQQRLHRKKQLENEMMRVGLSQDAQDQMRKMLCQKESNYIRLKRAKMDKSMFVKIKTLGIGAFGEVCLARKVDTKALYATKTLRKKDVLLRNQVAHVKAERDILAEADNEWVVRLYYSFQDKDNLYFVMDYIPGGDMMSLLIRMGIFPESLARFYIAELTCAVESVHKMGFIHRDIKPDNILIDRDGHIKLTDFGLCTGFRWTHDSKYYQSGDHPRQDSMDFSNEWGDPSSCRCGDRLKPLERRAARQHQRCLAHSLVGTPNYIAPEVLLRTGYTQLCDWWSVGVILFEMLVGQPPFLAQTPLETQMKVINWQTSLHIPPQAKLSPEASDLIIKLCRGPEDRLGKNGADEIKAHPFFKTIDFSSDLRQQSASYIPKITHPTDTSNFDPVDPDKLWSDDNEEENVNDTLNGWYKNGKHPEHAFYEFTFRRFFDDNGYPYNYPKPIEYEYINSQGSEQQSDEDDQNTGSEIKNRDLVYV
LATS1, sequence (Q7L9L4 whole entry partner, looked up): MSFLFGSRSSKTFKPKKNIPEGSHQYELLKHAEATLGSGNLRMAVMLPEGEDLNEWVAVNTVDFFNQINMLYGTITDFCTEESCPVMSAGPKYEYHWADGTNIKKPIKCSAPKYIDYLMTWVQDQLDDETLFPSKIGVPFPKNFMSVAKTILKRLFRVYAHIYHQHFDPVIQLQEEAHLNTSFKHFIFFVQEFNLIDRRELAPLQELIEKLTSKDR

As to `CC(C)(Nc1nc(-c2ccncc2)nc2cnccc12)c1ccc(F)cc1` [Example 83, N-[2-(4-fluorophenyl)propan-2-yl]-2-(pyridin-4-yl)pyrido[3,4-d]pyrimidin-4-amine], the figures for the IC50 in assay [1] and in assay [3] (Homo sapiens) were 0.017 µM and 42.1 µM, respectively. The EC50 in assay [2] (Homo sapiens) turned out to be 28.2 µM.

With `CCC(CO)Nc1nc(-c2ccncc2)nc2cnccc12` (stereo not drawn) [Example 78, 2-{[2-(pyridin-4-yl)pyrido[3,4-d]pyrimidin-4-yl]amino}butan-1-ol], the values for the IC50 in assay [1] and in assay [3] (Homo sapiens) were 0.011 µM and 12.1 µM, respectively. In assay [2] (Homo sapiens), the midpoint of the response, the EC50, lay at 14.3 µM.

Regarding `CC1(Nc2nc(-c3ccncc3C#N)nc3cnccc23)CC1` [Example 141, 4-{4-[(1-methylcyclopropyl)amino]pyrido[3,4-d]pyrimidin-2-yl}pyridine-3-carbonitrile], the IC50 in assay [1] worked out at 0.004 µM; in assay [3] (Homo sapiens) it was 13.6 µM. Besides, in assay [2] (Homo sapiens), the EC50 is over 10 µM.

`OCC(CC(F)(F)F)Nc1nc(-c2ccncc2)nc2cnccc12` (stereo not drawn) [Example 76, 4,4,4-trifluoro-2-{[2-(pyridin-4-yl)pyrido[3,4-d]pyrimidin-4-yl]amino}butan-1-ol]: the figures for the half-inhibitory concentration (IC50) in assay [1] and in assay [3] (Homo sapiens) were 0.009 µM and 6.42 µM, respectively. Besides, the EC50 in assay [2] (Homo sapiens) was found to be 9.41 µM.

Consider `CCCNc1nc(-n2ccc3ncccc32)nc2cnccc12` [Example 156, N-propyl-2-{1H-pyrrolo[3,2-b]pyridin-1-yl}pyrido[3,4-d]pyrimidin-4-amine], for which the concentration for half-maximal inhibition (IC50) in assay [1] was 0.006 µM; in assay [3] (Homo sapiens), over 100 µM. The EC50 in assay [2] (Homo sapiens) turned out to be 90.1 µM.

Consider `CC1(Nc2nc(-c3ccnnc3)nc3cnccc23)CC1` [Example 174, N-(1-methylcyclopropyl)-2-(pyridazin-4-yl)pyrido[3,4-d]pyrimidin-4-amine], for which the IC50 was 0.197 µM in assay [1] and over 10 µM in assay [3] (Homo sapiens). The molecule further displayed an EC50 in assay [2] (Homo sapiens) of over 20 µM.

On to `CC1CCCC1Nc1nc(-c2ccncc2)nc2cnccc12` (single isomer, unassigned) [Example 17c], for which the IC50 in assay [1] turned out to be 0.003 µM; in assay [3] it was 4.28 µM. In assay [2], this molecule gave an EC50 of 4.68 µM.

For `Cn1cc(-c2nc(NC3(C)CC3)c3ccncc3n2)cn1` [Example 196, 2-(1-methyl-1H-pyrazol-4-yl)-N-(1-methylcyclopropyl)pyrido[3,4-d]pyrimidin-4-amine], the IC50 in assay [1] is over 2.5 µM; in assay [3] (Homo sapiens), over 10 µM. Further, the EC50 in assay [2] (Homo sapiens) is over 20 µM.

Take `C[C@@H](N(C)c1nc(-c2ccncc2F)nc2cnccc12)C(F)(F)F` [Example 137, 2-(3-fluoropyridin-4-yl)-N-methyl-N-[(2R)-1,1,1-trifluoropropan-2-yl]pyrido[3,4-d]pyrimidin-4-amine]: the half-inhibitory concentration (IC50) in assay [1] was determined as 0.022 µM; in assay [3] (Homo sapiens) it was 35.5 µM. The molecule further gave an EC50 in assay [2] (Homo sapiens) of over 17.8 µM.

Regarding `Cc1ccccc1Nc1nc(-c2ccncc2)nc2cnccc12` [Example 89, N-(2-methylphenyl)-2-(pyridin-4-yl)pyrido[3,4-d]pyrimidin-4-amine], the IC50 was 0.044 µM in assay [1] and over 100 µM in assay [3] (Homo sapiens). The EC50 in assay [2] (Homo sapiens) was over 100 µM.

On to `NCCCCNc1nc(-c2ccncc2)nc2cnccc12` [Example 106, N-(4-aminobutyl)-2-(pyridin-4-yl)pyrido[3,4-d]pyrimidin-4-amine], for which the IC50 was 0.003 µM in assay [1] and 14.2 µM in assay [3] (Homo sapiens). Moreover, the half-maximal effective concentration (EC50) in assay [2] (Homo sapiens) is over 20 µM.

Regarding `CC(C)(Cc1ccc(F)cc1)Nc1nc(-c2ccncc2)nc2cnccc12` [Example 80, N-[1-(4-fluorophenyl)-2-methylpropan-2-yl]-2-(pyridin-4-yl)pyrido[3,4-d]pyrimidin-4-amine], the IC50 in assay [1] came to 0.011 µM; in assay [3] (Homo sapiens) it was 21.6 µM. This molecule also displayed an EC50 in assay [2] (Homo sapiens) of 12.9 µM.

Regarding `CC1(Nc2nc(-c3ccncn3)nc3cnccc23)CC1` [Example 159, N-(1-methylcyclopropyl)-2-(pyrimidin-4-yl)pyrido[3,4-d]pyrimidin-4-amine], the IC50 in assay [1] was 0.016 µM; in assay [3] (Homo sapiens), over 10 µM. In assay [2] (Homo sapiens), the EC50 was over 20 µM.

Regarding `Cn1nccc1-c1nc(NC2(CO)CCC2)c2ccncc2n1` [Example 187, (1-{[2-(1-methyl-1H-pyrazol-5-yl)pyrido[3,4-d]pyrimidin-4-yl]amino}cyclobutyl)methanol], the half-maximal inhibitory concentration (IC50) in assay [1] was 0.016 µM; in assay [3] (Homo sapiens) it was over 100 µM. This molecule also came in with an EC50 in assay [2] (Homo sapiens) of over 20 µM.

For `CCNc1nc(-c2ccncc2)nc2cnccc12` [Example 13, N-ethyl-2-(pyridin-4-yl)pyrido[3,4-d]pyrimidin-4-amine], the IC50 in assay [1] was 0.004 µM; in assay [3] (Homo sapiens), 13.5 µM. The same molecule showed an EC50 in assay [2] (Homo sapiens) of 8.51 µM.

As for `CC(C)CNc1nc(-c2ccncc2)nc2cnccc12` [Example 103, N-(2-methylpropyl)-2-(pyridin-4-yl)pyrido[3,4-d]pyrimidin-4-amine], the IC50 was 0.002 µM in assay [1] and 2.64 µM in assay [3] (Homo sapiens). Further, in assay [2] (Homo sapiens), the EC50 worked out at 2.27 µM.

For `Fc1cccc(Nc2nc(-c3ccncc3)nc3cnccc23)c1` [Example 95, N-(3-fluorophenyl)-2-(pyridin-4-yl)pyrido[3,4-d]pyrimidin-4-amine], the IC50 was over 1.44 µM in assay [1] and over 10 µM in assay [3] (Homo sapiens). Also, the EC50 in assay [2] (Homo sapiens) is over 20 µM.

Consider `CC1(Nc2nc(-c3cn[nH]c3)nc3cnccc23)CCC1` [Example 158, N-(1-methylcyclobutyl)-2-(1H-pyrazol-4-yl)pyrido[3,4-d]pyrimidin-4-amine], for which the IC50 amounted to 0.008 µM in assay [1] and 11.2 µM in assay [3] (Homo sapiens). In addition, the EC50 in assay [2] (Homo sapiens) worked out at 6.29 µM.

For the molecule `CC(C)(CNC(=O)OC(C)(C)C)Nc1nc(-c2ccncc2)nc2cnccc12` [Example 100, Tert-butyl N-(2-methyl-2-{[2-(pyridin-4-yl)pyrido[3,4-d]pyrimidin-4-yl]amino}propyl)carbamate], the IC50 in assay [1] was found to be 0.004 µM; in assay [3] (Homo sapiens), 11.6 µM. In addition, it took 4.83 µM to reach a half-maximal effect in assay [2] (Homo sapiens) (EC50).

Regarding `Cc1n[nH]c(C)c1-c1nc(NC(C)(C)CC(C)(C)O)c2ccncc2n1` [Example 160, 4-{[2-(3,5-dimethyl-1H-pyrazol-4-yl)pyrido[3,4-d]pyrimidin-4-yl]amino}-2,4-dimethylpentan-2-ol], the IC50 came to 0.024 µM in assay [1] and 6.8 µM in assay [3] (Homo sapiens). The molecule also yielded a half-maximal effective concentration (EC50) in assay [2] (Homo sapiens) of over 20 µM.

Regarding `CC(O)C(C)Nc1nc(-c2ccncc2)nc2cnccc12` (stereo not drawn) [Example 24, 3-{[2-(pyridin-4-yl)pyrido[3,4-d]pyrimidin-4-yl]amino}butan-2-ol], the figures for the IC50 in assay [1] and in assay [3] (Homo sapiens) were 0.017 µM and 34.7 µM, respectively. Also, the EC50 in assay [2] (Homo sapiens) was 33.1 µM.

On to `O=C(O)C1(Nc2nc(-c3ccncc3)nc3cnccc23)CCC1` [Example 56, 1-{[2-(pyridin-4-yl)pyrido[3,4-d]pyrimidin-4-yl]amino}cyclobutane-1-carboxylic acid], for which the IC50 was 1.16 µM in assay [1] and over 10 µM in assay [3] (Homo sapiens). This molecule returned an EC50 in assay [2] (Homo sapiens) of over 20 µM.

Turning to `CCCCNc1nc(-c2ccncc2)nc2cnccc12` [Example 19, N-butyl-2-(pyridin-4-yl)pyrido[3,4-d]pyrimidin-4-amine], the 50% inhibitory concentration (IC50) in assay [1] stood at 0.006 µM; in assay [3] (Homo sapiens), 24.8 µM. The same molecule gave an EC50 in assay [2] (Homo sapiens) of 17.6 µM.

For the molecule `CC(C)(CCc1ccccc1)Nc1nc(-c2ccncc2)nc2cnccc12` [Example 20, N-(2-methyl-4-phenylbutan-2-yl)-2-(pyridin-4-yl)pyrido[3,4-d]pyrimidin-4-amine], the IC50 in assay [1] amounted to 0.006 µM; in assay [3] (Homo sapiens), 1.77 µM. In assay [2] (Homo sapiens), this molecule had a concentration giving a half-maximal response (EC50) of 5.18 µM.

`CC1(Nc2nc(-c3cnco3)nc3cnccc23)CC1` [Example 175, N-(1-methylcyclopropyl)-2-(1,3-oxazol-5-yl)pyrido[3,4-d]pyrimidin-4-amine]: the IC50 in assay [1] was 0.324 µM; in assay [3] (Homo sapiens) it was over 10 µM. In assay [2] (Homo sapiens), this molecule registered an EC50 of over 20 µM.

As for `CCN(c1nc(-c2ccncc2F)nc2cnccc12)C(C)C` [Example 120, N-ethyl-2-(3-fluoropyridin-4-yl)-N-(propan-2-yl)pyrido[3,4-d]pyrimidin-4-amine], the concentration for half-maximal inhibition (IC50) in assay [1] was 0.01 µM; in assay [3] (Homo sapiens) it was 2.14 µM. The molecule further yielded an EC50 in assay [2] (Homo sapiens) of 2.93 µM.

Take `FC(F)(F)C1(Nc2nc(-c3cn[nH]c3)nc3cnccc23)CC1` [Example 188, 2-(1H-pyrazol-4-yl)-N-[1-(trifluoromethyl)cyclopropyl]pyrido[3,4-d]pyrimidin-4-amine]: the IC50 in assay [1] was 0.017 µM; in assay [3] (Homo sapiens) it was over 100 µM. In assay [2] (Homo sapiens), a half-maximal effect (EC50) was put at 12 µM.

On to `CCCNc1nc(-c2c[nH]c3ncncc23)nc2cnccc12` [Example 161, 4 N-propyl-2-{7H-pyrrolo[2,3-d]pyrimidin-5-yl}pyrido[3,4-d]pyrimidin-4-amine], for which the IC50 in assay [1] was 0.025 µM; in assay [3] (Homo sapiens), over 100 µM. In addition, the half-maximal effective concentration (EC50) in assay [2] (Homo sapiens) was over 20 µM.

As for `FC(F)(F)C(Cc1ccccc1)Nc1nc(-c2ccncc2)nc2cnccc12` (stereo not drawn) [Example 38, 2-(pyridin-4-yl)-N-(1,1,1-trifluoro-3-phenylpropan-2-yl)pyrido[3,4-d]pyrimidin-4-amine], the figures for the concentration for half-maximal inhibition (IC50) in assay [1] and in assay [3] (Homo sapiens) were 0.24 µM and over 10 µM, respectively. This molecule returned an EC50 in assay [2] (Homo sapiens) of over 20 µM.

Consider `COC(=O)C(C)(C)Nc1nc(-c2ccncc2)nc2cnccc12` [Example 32, Methyl 2-methyl-2-{[2-(pyridin-4-yl)pyrido[3,4-d]pyrimidin-4-yl]amino}propanoate], for which the values for the IC50 in assay [1] and in assay [3] (Homo sapiens) were 0.047 µM and over 10 µM, respectively. The EC50 in assay [2] (Homo sapiens) was over 20 µM.

The record behind these values is patent US11458138B2 (Novartis AG, priority 2017, dated 2022).
